For 78 compounds, RP-LC retention time results are on record in the METLIN SMRT retention time set (Domingo-Almenara et al. 2019).

The data set is described as follows: gradient 5% acetonitrile 3 min, to 50% in 2 min, to 85% in 15 min, held 3 min, 100 µL/min. The settings on record: column: Zorbax Extend-C18 2.1 x 50 mm; eluents: water / acetonitrile, 0.1% formic acid. In short, it runs like this:
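The mobile phases were water and acetonitrile, each with 0.1% formic acid, pumped at 100 μL/min through a Zorbax Extend-C18 column (2.1 × 50 mm, 1.8 μm). Pure standards were injected as mixtures of ~100 molecules and detected by a quadrupole time-of-flight mass spectrometer in positive and negative ionization mode. Retention time came from computationally picked adduct peaks, each inspected by hand.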
`COc1ccc(OC)c(NC(=O)c2cc(C(C)(C)C)n3nccc3n2)c1` gave an RP-LC retention time of 768 s.
In the case of `Cc1sc(C)c(S(=O)(=O)Nc2ccc(F)cc2)c1-c1cc(C(F)(F)F)on1` it was 1140 s; in that of `CCOCC(=O)N1CCCCCNC(=O)[C@@H]2CCCC[C@@H]21`, 657 s.
In the case of `CC1=NS(=O)(=O)N(C)C=C1C(=O)OCCc1ccccc1` it was 967 s; in that of `CC(C)c1nc(CNC(=O)c2ccc(Cl)cc2)no1`, 785 s.
In the case of `Cc1ccc(CNC(=O)Nc2cc3c(cc2N2CCCCC2)n(C)c(=O)n3C)cc1` it was 610 s.
As for `O=C(NCC1(c2ccccc2)CCOCC1)c1cccc(C(F)(F)F)c1`, the RP-LC retention time came out at 852 s.
For `COc1ccc(CCNC(=O)CSc2nnc(NC(=O)CC(C)C)s2)cc1OC` the value was 700 s; for `CCC(C(=O)NCCOc1ccc2nnc(-c3ccc(OC)cc3)n2n1)c1ccccc1` (stereo not drawn), 735 s.
For `CCN(CC)C(=O)C1CCCN(C(=O)c2nn(C)c3c2CN(C(=O)C2CCC2)CC3)C1` (stereo not drawn) the value was 681 s; for `Clc1ccc(Nc2c(-c3ccc(Cl)cc3)nc3ccc(Cl)cn23)cc1`, 1090 s.
In the case of `Cc1cc(C)c(S(=O)(=O)N2CCc3nc(-c4ccccc4)ncc3C2)cc1C` it was 1230 s.
`Cc1cccc(-c2nc(N)n(C(=O)C(C)(C)C)n2)c1` gave an RP-LC retention time of 1090 s.
In turn, `Cc1cc(NC(=O)CSc2ccc(NC(=O)c3cccc(F)c3)nn2)no1` yielded an RP-LC retention time of 750 s.
For `Cc1cc(N2CCN(C(=O)c3cncc(Br)c3)CC2)nc2ccccc12` the value was 623 s; for `Cc1nc(NC(=O)CN(C)c2nc3c(C)ccc(C)c3s2)sc1C(=O)N(C)C`, 803 s; for `O=C(CN1CCc2ccccc2C1C(=O)N1CCCC1)N1CCN(c2ccccc2)CC1` (stereo not drawn), 696 s.
For `O=C(C(=O)N1CCN(C2CCCCC2)CC1)c1ccc[nH]1` the value was 588 s; for `COc1ccccc1OC(C)C(=O)N1CCN(c2nc(CN3CCOCC3)cs2)CC1` (stereo not drawn), 621 s; for `COC(=O)CCSCC(=O)Nc1nnc(C)s1`, 602 s.
For `Cc1ncoc1C(=O)N1CCC(c2noc(-c3ccncc3)n2)C1` (stereo not drawn) the value was 642 s; for `O=C(CSc1ccc(-n2ccnc2)nn1)Nc1ccc(OC(F)(F)F)cc1`, 618 s; for `COc1ccc2c(c1)C1(CCN(S(=O)(=O)c3cccc(C)c3)C1)C(=O)N2C` (stereo not drawn), 941 s.
With `Cc1[nH]c(C(=O)NC2CCCCC2)c(C)c1S(=O)(=O)N1CCCC1`, the RP-LC retention time amounted to 843 s.
In the case of `CCc1ccc(S(=O)(=O)Nc2ccc3c(c2)N(C(=O)c2cccs2)CC3)s1` it was 923 s; in that of `COC(=O)c1ccc2c(=O)n(Cc3ccc(F)cc3)c(N3CCSC3)nc2c1`, 1090 s; in that of `COC(=O)c1cccc(Nc2c(-c3ccccc3)nc3cnccn23)c1`, 834 s.
In the case of `Cc1ccc2oc(-c3noc(C(=O)NCCN(C)C)n3)c(C)c2c1` it was 682 s.
In the case of `COc1ccc(S(=O)(=O)N2CC3CN(C(=O)c4ccc(C#N)cc4)CC(C2)O3)cc1` it was 773 s; in that of `CC(=O)Nc1ccc2c(c1)CN(C(=O)c1ccccc1C(F)(F)F)C(C(=O)N(C)C)C2` (stereo not drawn), 675 s.
`Brc1ccc(-c2noc(CSc3nccn3-c3ccccc3)n2)cc1` displayed an RP-LC retention time of 1030 s.
For `COc1cccc(-n2cc(C(=O)O)c3ccccc3c2=O)c1` the value was 760 s; for `CCCCN1CCN(S(=O)(=O)c2cc(-c3nnc(CC)o3)co2)CC1`, 608 s.
`Cc1ccc(Nc2cc(N3CCC(C(=O)NCc4ccco4)CC3)ncn2)cc1`: the RP-LC retention time worked out at 664 s.
In the case of `O=C(CCc1nnc2c3cc(-c4ccc(F)cc4)nn3ccn12)NCCc1ccccn1` it was 603 s; in that of `C=CCN1C(=O)COc2ccc(-c3nc(NC(=O)C(F)(F)F)sc3C)cc21`, 932 s.
In the case of `Cc1ccc(NC(=O)Cn2cnc3nc(N4CCCC(C(=O)NC(C)C)C4)sc3c2=O)cc1` (stereo not drawn) it was 711 s; in that of `CC(=O)N1c2ccc(S(=O)(=O)N3CCCC3)cc2CC1C(=O)NCCc1ccccc1C` (stereo not drawn), 848 s.
As to `O=S(=O)(c1cc(-c2nnc(C3CC3)o2)co1)N1CCN(c2ccccn2)CC1`, the RP-LC retention time is 640 s.
For `COc1cccc(N2CC(C(=O)Nc3nnc4n3CCS4)CC2=O)c1` (stereo not drawn) the value was 586 s; for `COc1ccc(CC(=O)N2CCC3(CC2)NC(=O)c2ccc(F)cc2N3C)cc1`, 759 s; for `Cc1sc2cc(C(=O)NC(C)(C)C)[nH]c2c1CN1CCCCC1`, 681 s.
Compound `Cc1ccc(CN2C(=O)CN(S(=O)(=O)c3ccccc3)CC2(C)C(=O)NCCC(C)C)cc1` (stereo not drawn) yielded an RP-LC retention time of 1040 s.
For `Cc1ccc(CNC(=O)c2ccccc2CN2C(=O)C3CCCN3C(=O)c3ccccc32)o1` (stereo not drawn) the value was 741 s; for `O=C(Nc1ccccc1F)C1CCCN(S(=O)(=O)Cc2ccccc2)C1` (stereo not drawn), 950 s; for `CCn1c(=O)c(N2CCCC(C(=O)N3CCN(c4ccc(OC)cc4)CC3)C2)nc2ccccc21` (stereo not drawn), 987 s.
As for `Cc1ccc(CNS(=O)(=O)c2cc(-c3[nH]ncc3C(=O)N(C)C)oc2C)cc1`, the RP-LC retention time came to 712 s.
For `COc1ccc(N2CCN(S(=O)(=O)c3cc(-c4csc(C)n4)ccc3C)CC2)cc1` the value was 1130 s.
For `COCC(=O)N1CC2CN(S(=O)(=O)c3cccc(F)c3)CC(C1)O2` the value was 660 s; for `COc1ccccc1-c1nnc(NC(=O)C2CCCN2S(=O)(=O)c2ccc(F)cc2)o1` (stereo not drawn), 717 s; for `CCCNC(=O)CCc1nc2ccccc2n(CC(=O)Nc2ccc(C(=O)OCC)cc2)c1=O`, 792 s.
In the case of `COc1ccc(C2=NC3(CCCCC3)N(CC(=O)Nc3cc(OC)cc(OC)c3)C2=O)cc1` it was 660 s.
`COc1ccc(N2CCN(c3ncc(S(=O)(=O)c4ccc(C(C)C)cc4)c(N)n3)CC2)cc1` gave an RP-LC retention time of 1070 s.
In the case of `CN1C(=O)C(F)=C[C@]2(C)[C@H]3CC[C@]4(C)[C@@H](C(=O)NCc5nc6ncccc6[nH]5)CC[C@H]4[C@@H]3CC[C@@H]12` it was 719 s; in that of `COc1ccccc1C1(CNC(=O)Cc2ccccc2Cl)CCOCC1`, 817 s.
In the case of `Cc1ccc(F)c(NC(=O)C(C)C2CCN(C(=O)Nc3ccc(Cl)cc3)CC2)c1` (stereo not drawn) it was 968 s; in that of `CC(=O)N1c2ccc(S(=O)(=O)N3CCCCC3)cc2CC1C(=O)NCCN(C)Cc1ccccc1` (stereo not drawn), 676 s; in that of `Cc1ccc(NC(=O)Cc2c(C)nn(-c3nc(-c4ccc(Cl)cc4)cs3)c2C)c(C)c1`, 1280 s.
For `CCOc1ccccc1NC(=O)C1CCN(S(=O)(=O)c2cn(CC)cn2)CC1` the value was 784 s; for `CCN1c2cc(F)ccc2C(=O)NC12CCN(C(=O)c1ccc(F)cc1)CC2`, 714 s.
With `COc1ccc(NC(=O)C2CCCN(c3cnc4nccnc4c3)C2)cc1Cl` (stereo not drawn), the RP-LC retention time stood at 746 s.
In the case of `Cc1ccccc1-n1ccn(Cc2nc(-c3ccc(F)cc3)no2)c(=O)c1=O` it was 844 s.
Take `Cc1ccc(Nc2c(-c3cc(Br)ccc3F)nc3cc(C)ccn23)cc1`: the RP-LC retention time is 818 s.
`COc1ccc(C2CC(=O)c3cnc(Nc4nc(C)c5cc(C)c(C)cc5n4)nc3C2)cc1` (stereo not drawn) showed an RP-LC retention time of 775 s.
`CCN1C(=O)CN(C(=O)c2ccsc2)CC12CCOCC2`: the RP-LC retention time was determined as 621 s.
In the case of `COc1ccc(OC)c(COCC(O)CN2CCc3cc(OC)c(OC)cc3C2)c1` (stereo not drawn) it was 575 s; in that of `O=C(NCc1ccc2c(c1)OCO2)c1ccc2ncnc(N3CCOCC3)c2c1`, 605 s.
In the case of `COC(=O)c1c(C)[nH]c(C(=O)N2CCC(CC(=O)NC(C)CCc3ccccc3)CC2)c1C` (stereo not drawn) it was 880 s; in that of `CCc1ccc(OCc2nc(CCN(C)C(=O)Nc3cc(OC)ccc3OC)no2)cc1`, 1060 s; in that of `COc1ccc(C(=O)O)nc1C`, 552 s.
In the case of `Cc1ccc(NC(=O)NCCc2cn(CC(C)C)c3ncccc23)c(Cl)c1` it was 937 s; in that of `COC(=O)c1ccccc1NC(=O)N(Cc1cc(=O)[nH]c2ccccc12)C(C)C`, 831 s.
As to `Cc1ccc(S(=O)(=O)Nc2ccc(-c3cn4ccccc4n3)cc2)cc1[N+](=O)[O-]`, the RP-LC retention time stood at 662 s.
Compound `O=S1(=O)C[C@H](N2CCN(c3cccc(Cl)c3)CC2)[C@@H](S(=O)(=O)c2ccc(F)cc2)C1` returned an RP-LC retention time of 1040 s.
For `CCCCNC(=O)CC1CCN(C(=O)c2[nH]c(C)c(C)c2C)CC1` the value was 764 s.
In the case of `CCC(=O)N1CCc2sc(S(=O)(=O)N3CCN(c4ccccc4C)CC3)cc2C1` it was 1030 s.
For `Cc1ccnc(N2CCC(C(=O)N3CCN(Cc4ccc5c(c4)OCO5)CC3)CC2)n1` the value was 590 s; for `COc1ccc(OC)c(NC(=O)NC2CCN(c3ccc(C)cc3)C2=O)c1` (stereo not drawn), 837 s.
